These results are taken from patent US20240132887A1, “PROTEIN ARGININE METHYLTRANSFERASE 9 INHIBITORS AND METHODS OF USE” (City of Hope, priority 2022, published 2024).

One experiment has as its target T1, PRMT9 (Homo sapiens, UniProt Q6P2P2).
T1 construct: Myc; made in house
T1 sequence (Q6P2P2 1-845): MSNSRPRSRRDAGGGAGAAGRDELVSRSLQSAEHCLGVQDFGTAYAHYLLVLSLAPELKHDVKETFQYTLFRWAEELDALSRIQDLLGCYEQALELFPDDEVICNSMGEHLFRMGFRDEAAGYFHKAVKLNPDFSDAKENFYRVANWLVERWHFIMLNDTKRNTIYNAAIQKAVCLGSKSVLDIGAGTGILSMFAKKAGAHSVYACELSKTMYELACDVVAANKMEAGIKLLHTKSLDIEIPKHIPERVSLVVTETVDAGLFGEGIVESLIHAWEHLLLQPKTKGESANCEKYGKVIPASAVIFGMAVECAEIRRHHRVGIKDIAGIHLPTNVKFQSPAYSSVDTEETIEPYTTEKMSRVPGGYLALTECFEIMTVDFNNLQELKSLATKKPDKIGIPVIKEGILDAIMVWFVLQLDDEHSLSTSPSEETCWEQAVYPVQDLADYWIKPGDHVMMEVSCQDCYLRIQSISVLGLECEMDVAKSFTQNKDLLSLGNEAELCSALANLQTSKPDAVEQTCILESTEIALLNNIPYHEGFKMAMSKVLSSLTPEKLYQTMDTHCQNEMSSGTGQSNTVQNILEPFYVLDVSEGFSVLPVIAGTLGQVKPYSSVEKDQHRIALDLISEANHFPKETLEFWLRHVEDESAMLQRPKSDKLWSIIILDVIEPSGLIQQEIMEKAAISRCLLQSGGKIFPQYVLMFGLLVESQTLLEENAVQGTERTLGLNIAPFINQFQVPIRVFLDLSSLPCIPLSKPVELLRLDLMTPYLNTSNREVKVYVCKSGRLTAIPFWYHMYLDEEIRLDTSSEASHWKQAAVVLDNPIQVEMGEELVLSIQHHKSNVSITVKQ
Description: In-house R493 methylation assay (PABPC1 peptide, SAM, dot blot with anti-R493me antibody). To be noted: for PRMT9 inhibition (catalytic activity screen of top 20 compounds): compounds 10 μM, PRMT9 pretreated 1 h. It is filed as biochemical.

Experiment [1] concerns MNCs from AML BM specimens. Description: Primary AML MNC ex-vivo culture (CyTOF, flow cytometry). Type of experiment: cell-based, human. To be noted: αPD-1 alone or combined with LD2, 4 days ex-vivo. A general note: A flow cytometer gives signals particle by particle.
Description: Spanning-tree Progression Analysis of Density-normalized Events (SPADE) clustering was performed to identify cell groups corresponding to immunophenotypic subsets across normal hematopoiesis lineages. The frequency of CD3^+ T cells and CD34^+CD45^dim AML blast cells were noted. […] The relative number of alive CD34^+CD45^dim AML blast cells was assessed by flow cytometry. Data are presented as mean±SD from 3 independent experiments.
After 4 days treatment of vehicle (VEH) or LD2, survival of leukemic (CD34+CD33+) and immune subsets, including T cells (CD3+), B cells (CD19+/CD20+), and DCs (HLA-DR+CD34−CD33−CD3−CD19−CD20−CD14−CD56−), were accessed using Annexin-V staining.
LD2 treatment in total of 4 days ex-vivo culture (under the BM stroma cytokine condition).

Description for PRMT9: FIG. 10D: Catalytic activity screen of 9 selected compounds using an in-house R493 methylation assay. PRMT9 protein was pretreated 1 h with indicated compounds using in vitro methylation buffer and then incubated with synthesized unmodified PABPC1 peptides and SAM. […] Catalytic activity inhibition curves are calculated based on intensity of blots normalized to intensity at 37° C. (n=2). […] Data (FIG. 10I) are represented as mean±SD; P values (FIG. 10I) were determined by two-way ANOVA.
FIG. 11B: In-house R493 methylation assay. Synthesized unmodified PABPC1 peptides (aaG491-T507) were incubated 4 h with PRMT9 and SAM at 30° C. Catalytic activity was assessed by dot blot with anti-R493 specific antibody. PRMT9 or unmodified PABPC1 peptide alone served as negative controls, and synthesized R493me PABPC1 peptide as positive. FIG. 11C: Catalytic activity screen of top 20 compounds based on Molm13 viability assay with an in-house R493 methylation assay. PRMT9 protein was pretreated 1 h with indicated compounds (10 μM) and then incubated with synthesized unmodified PABPC1 peptides and SAM. Catalytic activity was assessed by dot blot with an anti-R493me specific antibody.

Turning to `COc1ccc2c(c1)c1ccc3c(c1n2C)C(=O)C=CC3=O` [NSC641396], the “PRMT9 inhibition (catalytic activity screen of top 20 compounds)” value (“PRMT9 inhibition” for short) at PRMT9 is on record as “most potent PRMT9 inhibition”. The “PRMT9 inhibitory effects (PABP1 R493me levels)” value on PRMT9 (different concentrations of each compound, comparison among the three NSC compounds) is given as “most potent PRMT9 inhibitory effects”. In the case of `Cc1cccc2c1c1ccc3c(c1n2C)C(=O)C=CC3=O` [NSC645330], the “PRMT9 inhibition” value on PRMT9 is “most potent PRMT9 inhibition”. As for `Cc1ccc2c(c1)c1ccc3c(c1n2C)C(=O)C=CC3=O` [NSC661221], the “PRMT9 inhibition” value on PRMT9 was “most potent PRMT9 inhibition”. For “αPD-1: anti-PD-1 (pembrolizumab, SIM0010, BioXCell) used in ex-vivo AML cultures”, the “proportion / frequency of tumor cells” value in experiment [1] is listed as “marginally decreased the proportion of tumor cells”.
